≈ marks a conversion by molar mass, not a printed value. Where “and” joins values, the source holds several entries; their conditions need not be identical. Equal entries are not always repeated. Where two headings read alike, the source gives them in different places. Values belong to the compound of their own block, whether it stands above or below them.
Assays:
Complex II (CII) = Complex II (CII) (Rattus norvegicus, UniProt P21913+Q641Z9+Q6PCT8); test: Complex II inhibition assay; type: biochemical; settings: for CII inhibition activity (in words): rat heart mitochondria; for LLE: Ligand-Lipophilicity Efficiency (LLE = pIC50-ClogP)
Sequence of Complex II (CII) (P21913 31-282): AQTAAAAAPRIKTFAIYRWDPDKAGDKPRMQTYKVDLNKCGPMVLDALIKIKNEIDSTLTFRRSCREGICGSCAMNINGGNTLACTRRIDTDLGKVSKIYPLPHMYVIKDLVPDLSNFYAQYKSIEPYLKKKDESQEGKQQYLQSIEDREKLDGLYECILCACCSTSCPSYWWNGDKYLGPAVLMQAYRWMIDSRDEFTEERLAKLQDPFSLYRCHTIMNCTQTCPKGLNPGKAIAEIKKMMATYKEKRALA
Sequence of Complex II (CII) (Q641Z9 30-169 limits assumed): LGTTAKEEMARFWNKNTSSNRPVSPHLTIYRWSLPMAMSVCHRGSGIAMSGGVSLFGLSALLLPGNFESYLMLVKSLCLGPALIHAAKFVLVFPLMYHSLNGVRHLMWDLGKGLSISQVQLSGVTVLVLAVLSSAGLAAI
Sequence of Complex II (CII) (Q6PCT8 57-159): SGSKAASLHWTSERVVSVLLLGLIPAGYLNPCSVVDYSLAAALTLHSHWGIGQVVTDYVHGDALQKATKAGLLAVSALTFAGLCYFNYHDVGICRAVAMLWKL
Sequence of Complex II (CII) (Q920L2 35-656 partner): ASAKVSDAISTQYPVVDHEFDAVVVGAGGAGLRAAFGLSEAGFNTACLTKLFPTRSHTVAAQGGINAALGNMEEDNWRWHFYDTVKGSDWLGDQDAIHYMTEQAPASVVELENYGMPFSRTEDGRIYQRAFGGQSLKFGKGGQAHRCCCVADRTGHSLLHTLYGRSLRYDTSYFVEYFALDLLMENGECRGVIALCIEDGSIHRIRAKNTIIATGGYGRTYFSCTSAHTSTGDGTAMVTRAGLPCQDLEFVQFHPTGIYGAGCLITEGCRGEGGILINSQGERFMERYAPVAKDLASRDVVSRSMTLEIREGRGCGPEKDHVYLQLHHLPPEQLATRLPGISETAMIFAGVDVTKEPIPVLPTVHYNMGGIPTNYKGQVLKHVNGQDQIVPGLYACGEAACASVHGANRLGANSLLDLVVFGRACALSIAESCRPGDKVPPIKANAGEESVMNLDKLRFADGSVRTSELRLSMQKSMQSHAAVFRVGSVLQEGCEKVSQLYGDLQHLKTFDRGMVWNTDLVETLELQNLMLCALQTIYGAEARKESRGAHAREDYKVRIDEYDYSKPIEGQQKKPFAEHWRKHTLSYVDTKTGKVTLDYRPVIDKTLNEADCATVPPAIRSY

bovine CII = settings: read-out: bovine CII IC50; cited from earlier work
CII = settings: read-out: CII IC50, cited from earlier work
HEK293 cells = test: MTS cytotoxicity assay, HEK293; settings: for IC50: Homo sapiens, HEK293, 48 h, read-out: HEK293 IC50
[1] = biological target: Complex I (NADH ubiquinone-oxidoreductase) (Mus musculus, UniProt P03888+Q91WD5+Q9DC70); test: Complex I inhibition assay; type: biochemical; settings: for Selectivity Ratio (CII:CI): Complex I IC50 / Complex II IC50
[2] = system: 22Rv1 prostate cancer cells; test: MTS cytotoxicity assay, 22Rv1; settings: 22Rv1, 48 hours; plateau beyond
[3] = system: PC3 prostate cancer cells under hypoxia; test: Hypoxia cytotoxicity in microfluidic culture
[4] = system: PC3 prostate cancer cells; test: MTS cytotoxicity assay, PC3; settings: Homo sapiens, 48 h, read-out: PC3 IC50
[5] = system: DU-145 prostate cancer cells; test: MTS cytotoxicity assay, DU-145; settings: Homo sapiens, DU-145, 48 h, read-out: DU-145 IC50
22Rv1 cells = test: Seahorse XF metabolic parameters; type: cell-based, human; settings: 22Rv1, 48 hour incubation
[6] = CII IC50, rat heart mitochondria, mean of n = 4 ± S.D.

CII inhibition activity (in words) (Complex II (CII)): inactive
SMILES: CCCCCC(O)c1cnc(OC)c(OC)c1O (racemic) [compound 19, (rac)-5-(1-hydroxyhexyl)-2,3-dimethoxypyridin-4-ol]

SMILES: CCCCCCC(=O)c1c(O)nc(OC)c(OC)c1O [16f, 1-(2,4-dihydroxy-5,6-dimethoxypyridin-3-yl)heptan-1-one]
IC50 (bovine CII): 20 nM | IC50 (Complex II (CII); [6]): 283 nM | LLE (Complex II (CII)): 4.57

SMILES: Cc1c(C)c2c(c(C)c1OC(=O)CCC(=O)O)CC[C@@](C)(CCC[C@H](C)CCC[C@H](C)CCCC(C)C)O2 [α-Tocopheryl succinate, α -Tocopheryl succinate]
IC50 (CII): 42 µM

SMILES: O=C(O)CC(=O)O [Malonate]
IC50 (CII): 40 µM

SMILES: COc1nc(O)c(C(=O)CCCCOCc2ccccc2)c(O)c1OC [16d, 5-(benzyloxy)-1-(2,4-dihydroxy-5,6-dimethoxypyridin-3-yl)pentan-1-one]
IC50 (Complex II (CII); [6]): 281 ± 88.7 nM

SMILES: CCCCCCCC(=O)c1c(O)nc(OC)c(OC)c1O [16g, 1-(2,4-dihydroxy-5,6-dimethoxypyridin-3-yl)octan-1-one]
LLE (Complex II (CII)): 4.89

SMILES: COc1[nH]c(=O)c(C(=O)[C@@H](C)C[C@H](C)[C@@H](Cl)CCl)c(O)c1OC [Atpenin A5, atpenin A5, reference compound]
IC50 (CII): 0.0036 to 0.01 µM | IC50 (Complex II (CII); [6]): 3.3 ± 2 nM

SMILES: CCCCCCCCCCCCC(=O)c1c(O)nc(OC)c(OC)c1O [16k, 1-(2,4-dihydroxy-5,6-dimethoxypyridin-3-yl)tridecan-1-one]
IC50 (HEK293 cells): 28 ± 2 µg/mL (≈ 76.2 µM) | selectivity for 22Rv1 over HEK293 cell line (HEK293 cells; ratio of IC50 values): 14 fold | Selectivity Ratio (CII:CI) [1]: >3030 | LLE (Complex II (CII)): 3.76 | IC50 (Complex II (CII); read-out: CII IC50 expressed in μg/mL, conversion of the nM IC50): 3.29 nM | concentration at which maximal cytotoxicity is reached [2]: 10 µg/mL

CII inhibition activity (in words) (Complex II (CII)): abrogates CII inhibition activity
SMILES: COc1nc(O)c(C(=O)c2ccco2)c(O)c1OC [16a, (2,4-dihydroxy-5,6-dimethoxypyridin-3-yl)(furan-2-yl)methanone]

SMILES: CCCCCC(O)c1c(O)nc(OC)c(OC)c1O (racemic) [compound 18, (rac)-3-(1-hydroxyhexyl)-5,6-dimethoxypyridine-2,4-diol]
CII inhibition activity (in words) (Complex II (CII)): no CII inhibition activity | inhibition at 0.1 µM (Complex II (CII); read-out: inhibition of CII at 100 nM concentration): 0% | cytotoxic effect under hypoxia (in words) ([3]; up to 10 μM): no cytotoxic effect

CII inhibition activity at 100 nM concentration (in words) (Complex II (CII)): no activity
SMILES: CCCCCC(OC)c1cnc(OC)c(OC)c1O (stereo not shown) [compound 24, 2,3-dimethoxy-5-(1-methoxyhexyl)pyridin-4-ol]

SMILES: CCCCCC(=O)c1c(O)nc(OC)c(OC)c1O [16c, 1-(2,4-dihydroxy-5,6-dimethoxypyridin-3-yl)hexan-1-one]
IC50 (HEK293 cells): 71 ± 5.2 µg/mL (≈ 264 µM) | selectivity for DU-145 and 22Rv1 prostate cancer cells over HEK293 (HEK293 cells; ratio of IC50 values): ~7 fold | IC50 [4]: 55 ± 9.4 µg/mL (≈ 204 µM) | IC50 [5]: 13 ± 1.6 µg/mL (≈ 48.3 µM) | oxygen consumption rate (22Rv1 cells; 1-100 μM): substantially reduced in a dose-dependent manner | ATP production (22Rv1 cells; vs no treatment control): inhibition of ATP production | basal respiration (22Rv1 cells; vs no treatment control): reducing basal respiration | maximal respiration (22Rv1 cells; vs no treatment control): reduction of maximal respiration | IC50 [1]: > 10 µM | Selectivity Ratio (CII:CI) [1]: >156 | IC50 (Complex II (CII); CII IC50 expressed in μg/mL, conversion of the nM IC50): 64 nM | LLE (Complex II (CII)): 5.62 | cell death ([3]; 1 μM): 12%

SMILES: O=C(CC(=O)C(F)(F)F)c1cccs1 [Thenoyltrifluoroacetone]
IC50 (CII; control compound in CII assay kits): 30 µM

SMILES: CCCCC(=O)c1c(O)nc(OC)c(OC)c1O [16b, 1-(2,4-dihydroxy-5,6-dimethoxypyridin-3-yl)pentan-1-one]
IC50 (bovine CII): 96 nM | IC50 (Complex II (CII); [6]): 345 nM and 346 nM | LLE (Complex II (CII)): 5.37

SMILES: CCCCCCCCCCC(=O)c1c(O)nc(OC)c(OC)c1O [16j, 1-(2,4-dihydroxy-5,6-dimethoxypyridin-3-yl)undecan-1-one]
LLE (Complex II (CII)): 4.32

SMILES: COc1nc(O)c(C(=O)CCCCO)c(O)c1OC [16e, 1-(2,4-dihydroxy-5,6-dimethoxypyridin-3-yl)-5-hydroxypentan-1-one]
IC50 (Complex II (CII); [6]): 3730 ± 1020 nM | fold greater CII activity than diazoxide (Complex II (CII); vs literature IC50 of diazoxide): 10 fold

CII inhibition activity at 100 nM concentration (in words) (Complex II (CII)): no activity
SMILES: CCCCCC(=O)c1cnc(OC)c(OC)c1O [compound 20, 1-(4-hydroxy-5,6-dimethoxypyridin-3-yl)hexan-1-one]

SMILES: CCCCCCCCC(=O)c1c(O)nc(OC)c(OC)c1O [16h, 1-(2,4-dihydroxy-5,6-dimethoxypyridin-3-yl)nonan-1-one]
LLE (Complex II (CII)): 4.93

Source: paper PMC5557372 (ChemMedChem, 2017)
